What was measured:
[1] = test system: 4-4-20 anti-fluorescein scFv, wild-type, yeast surface displayed Aga2p fusion; assay: Competitive dissociation of labeled antigen from yeast surface displayed scFv, followed by flow cytometry; type: binding; conditions: 5-aminofluorescein as competitor
Description: (§1) Yeast cells bearing plasmid pCT202 were grown and labeled with anti-c-myc mAb 9E10 and FITC-dextran or biotin-fluorescein, as described. A fraction of the labeled population was analyzed flow cytometrically to determine the initial level of fluorescence. Non-fluorescent competitor (5-aminofluorescein) was added to a final concentration of approximately […] (~1000-fold excess) and the FITC or PE fluorescence of the c-myc positive cell population was followed as a function of time at room temperature (21-23° C.) on a Coulter Epics XL. Data were fitted as an exponential decay. The probability that a polyvalent antigen is bound to the cell as a function of time is given by P=1-(1-e^-kt)^N, where N is the valency, k is the kinetic rate constant for dissociation, and t is time. For long times t, this reduces to P=Ne^-kt. Thus, extrapolation of data for long t to time zero yields P=N, or a fluorescence intensity of Fext =N Fo, where Fext is the extrapolated fluorescence at the time of competitor addition and Fo is the actual initial fluorescence.

[2] = test system: 4-4-20 anti-fluorescein scFv mutant 4M1.2, yeast surface displayed Aga2p fusion; assay: as above; type: binding; conditions: 23° C., 5-aminofluorescein as competitor
Description: as §1

[3] = test system: 4-4-20 anti-fluorescein scFv mutant 4M1.1; assay: Soluble fluorescein dissociation kinetics by spectrofluorometry (fluorescence quenching, whole cells displaying scFv); type: binding; conditions: mutant 4M1.1 vs wild-type 4-4-20 scFv
Description: (§2) Binding to soluble fluorescein (FDS) was assayed by observing fluorescence quenching by whole cells displaying scFv. Cells were suspended at 2×10^7 cells/ml in TBS+0.1% BSA in a quartz cuvette thermostatted at 23° C. and titrated with FDS over a range of 0-7.5 nM. […] Control cells displaying an irrelevant scFv were titrated to obtain a slope for a two-parameter fit of an equilibrium binding model to the data, yielding equilibrium constants and effective scFv concentrations. Following the equilibrium titration, 5-aminofluorescein was added to 1 mM and the change in fluorescence of the sample followed with time to determine koff for FDS.

[4] = test system: 4-4-20 anti-fluorescein scFv mutant 4M1.2; assay: as above; type: binding; conditions: mutant 4M1.2 vs wild-type 4-4-20 scFv
Description: as §2

[5] = molecular target: 4-4-20 anti-fluorescein antibody; conditions: stated in discussion, no method given; cited from earlier work

O=C(CCCCCNC(=O)CCCC[C@@H]1SC[C@@H]2NC(=O)N[C@@H]21)NCCCCCNC(=S)Nc1ccc2c(c1)C(=O)OC21c2ccc(O)cc2Oc2cc(O)ccc21 [fluorescein-biotin]
monovalent dissociation rate constant (koff) for fluorescein-biotin ([1]; 21° C.): 0.0039 s⁻¹ | koff for fluorescein-biotin ([1]; 23° C., wild-type): 0.005 s⁻¹ | koff for fluorescein-biotin [2]: 0.0028 s⁻¹

O=C1OC2(c3ccc(O)cc3Oc3cc(O)ccc32)c2ccccc21 [fluorescein]
improvement of soluble fluorescein dissociation kinetics relative to wild-type [3]: 2.2 fold | improvement of soluble fluorescein dissociation kinetics relative to wild-type [4]: 2.2 fold | Kd [5]: 0.4 nM

Reference: patent publication US6300065A, “Yeast cell surface display of proteins and uses thereof” (Board of Trustees of the University of Illinois, priority 1998, dated 2001)
